Measurements reported in patent US20140163095A1, “USE OF ERIBULIN IN THE TREATMENT OF BREAST CANCER” (priority 2012, published 2014).

Test system: locally advanced or metastatic breast cancer
Experiment: Phase III clinical trial comparing eribulin mesylate and capecitabine
[1] = of patients with any new metastasis

Protocol: A global, randomized, open-label, two-parallel-arm, phase III clinical trial of eribulin (eribulin mesylate) and capecitabine was performed.
This study randomized 1102 patients who had up to three prior chemotherapy regimens, and no more than two prior regimens for advanced and/or metastatic disease. The prior regimens must have included an anthracycline and a taxane, either in the (neo) adjuvant setting or for locally advanced or metastatic disease. Patients must have had documented evidence of progression during or after their most recent anti-cancer therapy. […] Patients were randomized to receive either eribulin mesylate as an intravenous (IV) infusion of 1.4 mg/m^2 over 2-5 minutes on days 1 and 8 every 21 days or capecitabine as an oral administration of 2.5 g/m^2/day administered twice daily in two equal doses on days 1 to 14 every 21 days.
This study was designed to have co-primary endpoints, overall survival (OS) and progression free survival (PFS), with alpha spending 0.04 and 0.01, respectively.
Progression events (disease progression determined by Response Evaluation Criteria in Solid Tumors [RECIST, version 1.0]) were categorized as: (i) emergence of a new lesion/metastasis, defined here as a lesion identified at progression that had not been previously reported, (ii) increase in size of an existing (previously reported) lesion (target or non-target), and (iii) other PFS event, e.g., death, clinical progression, or censoring. Investigator review of disease progression was used as the primary analysis for these investigations. Where progression was determined by investigator review, no further scans were performed, leading to informative censoring of independent review data (approximately 20%). The number of new metastases observed by independent review was considered an under-estimate due to this considerable informative censoring. OS and PFS were compared between treatment arms using two-sided, stratified (geographic region and HER2 status) log-rank tests. The correlation between progression events and OS was investigated by Cox regression, incorporating the event as a time-dependent covariate. New metastasis-free survival, defined as time from randomization to death or progression due to appearance of a new metastasis (whichever occurs earlier), was also analyzed.

CCCCCOC(=O)Nc1nc(=O)n([C@@H]2O[C@H](C)[C@@H](O)[C@H]2O)cc1F [Capecitabine, reference compound]
median overall survival (OS) (all randomized patients): 14.5 months | median progression-free survival (PFS) (all randomized patients): 4.2 months | New metastasis site: Bone, patients (count): 62 | New metastasis site: Breast, patients (count): 13 | New metastasis site: CNS (brain/spine), patients (count): 25 | New metastasis site: Chest wall, patients (count): 5 | New metastasis site: Liver, patients (count): 74 | New metastasis site: Lung, patients (count): 76 | New metastasis site: Lymph nodes, patients (count): 55 | New metastasis site: Other, patients (count): 53 | New metastasis site: Skin, patients (count): 26 | Number of patients with any new metastasis observed (count, investigator review, intent-to-treat): 316 | patients with progression due to a new metastasis (investigator review): 52.0% | patients with progression due to increase in the size of a pre-existing lesion (investigator review): 23.5% | patients with progression due to other reasons such as death and clinical progression (investigator review): 24.5% | patients with any new metastasis observed, percentage (investigator review, intent-to-treat): (57.7) % | New metastasis site: Bone, percentage [1]: (19.6) % | New metastasis site: Breast, percentage [1]: (4.1) % | New metastasis site: CNS (brain/spine), percentage [1]: (7.9) % | New metastasis site: Chest wall, percentage [1]: (1.6) % | New metastasis site: Liver, percentage [1]: (23.4) % | New metastasis site: Lung, percentage [1]: (24.1) % | New metastasis site: Lymph nodes, percentage [1]: (17.4) % | New metastasis site: Other, percentage [1]: (16.8) % | New metastasis site: Skin, percentage [1]: (8.2) % | Median OS (patients whose disease progressed due to other events): 15.5 months | Median OS (patients with progression due to new metastasis): 12.9 months | Median OS (patients with progression due to pre-existing lesion): 17.4 months
